A melting point compilation (Tetko et al.; mined from patent text by program, amines drawn as free bases though some values may be those of a salt)

melting point [°C]	Compound
89 to 96	OCC1OC(n2cnc3c(NC(c4ccccc4)c4ccccc4)ncnc32)C(O)C1O (centres undefined)
111 to 114	CN(C)C=Cc1ccc([N+](=O)[O-])c(OCc2ccccc2)c1
55 to 56	Nc1cccc(CSCCNC(=O)c2c(Cl)cccc2Cl)c1
148 to 151	O=C1c2ccccc2C(=O)N1CC1CC1c1cccc2nscc12 (centres undefined)
262 to 264	CC1C(C/C=C/c2ccccc2)C(=O)N(Cc2ccccc2)c2ccccc2N1C(=O)CN1C(=O)c2ccccc2C1=O (centres undefined)
144 to 145	O=c1cc(-c2ccccc2)oc2cccc(F)c12
283 to 285	CC(C)c1ccc(-n2ccn(-c3cccc(C(=O)O)c3)c2=O)cc1
150 to 152	O=[N+]([O-])c1ccc(C(F)(F)F)c(Nc2nc3ccccc3o2)c1
78 to 87	COC(=O)c1ccc(CNC(=O)C2Cc3ccccc3N2S(=O)(=O)c2ccc(-c3cccc(C(F)(F)F)c3)cc2)c(Cl)c1 (centres undefined)
156 to 157	O=C(O)CCc1oc(Sc2ccccc2)nc1-c1ccc(Cl)cc1
142 to 143	Cc1ccccc1OC(Cc1ccc(OCCN(C)c2nc3ccccc3o2)cc1)C(=O)O (centres undefined)
105 to 108	COc1ccc2c(-c3ccccc3F)noc2c1C
162 to 164	Nc1ncccc1-c1nc2ccc(-c3cccnc3)nc2n1-c1ccc(CC(=O)Nc2ccccc2)cc1
92 to 93	CC1=CCC2C(=O)N(c3ccccc3)C(=O)C2C1 (centres undefined)
198 to 200	Cc1cnc2sc(S(=O)(=O)c3ccccc3)nn2c1=O
192 to 193	CCn1nc(C(=O)OC(C)C)cc(Nc2cncc3ccccc23)c1=O
324 to 327	Cc1cc(=O)c2[nH]nc(-c3ccc(Cl)cc3)c2[nH]1
271 to 272	O=c1c(NCc2cccc(O)c2)c(Nc2ccc(O)c(-c3ccccn3)c2)c1=O
211 to 212	O=C(Nc1ccc(S(=O)(=O)C[N+](=O)[O-])cc1)c1ccccc1
53 to 59	CC(C)NCC(O)COc1ccc(-c2oc3ccccc3c2C(=O)c2ccccc2)cc1 (centres undefined)
125 to 127	COCc1c(C=O)ncc2c1c1c(OCc3ccccc3)cccc1n2S(=O)(=O)c1ccc(C)cc1
126 to 127	COCc1cnc2c(NC(=O)c3ccccc3C(F)(F)F)cccc2c1-n1ccnc1
195 to 196	O=c1oc2ccccc2cc1S(=O)(=O)Cc1ccc(Cl)cc1
266 to 271	CCNC(=O)c1ccc(N2CCN(Cc3cnc4c(c3)[nH]c(=O)n3cccc43)CC2)c(Cl)c1
213 to 215	O=Cc1cc(-c2ccccc2)c(=O)n2c1-c1sccc1CC2
70 to 71	OCCCc1oc(Sc2ccccn2)nc1-c1ccc(Cl)cc1
218 to 220	COC(=O)C1=C(C(=O)OC)C(N)C2=C(c3cc4ccccc4s3)N=NC2=N1 (centres undefined)
290 to 292	Cc1cccc2c1C(=O)N(C1CCC(=O)NC1=O)C2=O (centres undefined)

Further lines, the molecule ahead of its results:

Compound	melting point [°C]
Clc1ccc(N2CCN(CCCc3c4c(nn3-c3ccc(Cl)cc3)CCCC4)CC2)cc1	129 to 131
CCCCCCCCCCCCCCCCCC(CCCCCCCCCCCCCCCCC)=NO	66 to 67
Cc1cc2[nH]c(=O)ccc2c(Br)n1	276 to 278
Cc1ccc(N)cc1C(=O)O	142 to 144
CN(C)CC(C)(C)Oc1ccc(Nc2cc(-c3cccc(-n4ncc5cc(C(C)(C)C)cc(F)c5c4=O)c3CO)nn(C)c2=O)nc1	136 to 144
Cn1c(=O)oc(=O)c2ccc(F)cc21	158 to 160
Clc1ccccc1-c1n[nH]cc1Br	80
CC(c1ccc2c(c1)N(C)c1cc(Cl)ccc1S2)N(O)C(N)=O (centres undefined)	176 to 177
CCCCCCCCCCCC(=O)N[C@H](CC(=O)c1ccc(C)cc1)C(=O)OCC	60 to 60.5
O=C(O)c1ccsc1Cl	166 to 167
CC(C)c1nc2cc(NC(=O)c3c(C(=O)N4CC(F)C4)cnn3C)ccn2n1	226 to 227
C#CCn1c(=O)[nH]c(=O)n(-c2cc(N3C(=O)C4=C(CCCC4)C3=O)c(F)cc2Cl)c1=O	127 to 135
CC(=O)CCNc1ccc(-c2cc(-c3ccc(C(=O)O)cc3)ccc2OCCCCO)cc1C(C)(C)C	75
CCOc1cc(=O)oc2cc(C)ccc12	142 to 143
CCCNC(=O)C(C)NC(=O)C(NC(=O)OCc1ccccc1)C(Cc1ccccc1)C(=O)O (centres undefined)	169 to 171
C[C@H](Cn1ncnn1)n1cnc2cc3c(=O)n([C@H](C)Cn4cnnn4)nnc3cc2c1=O	168 to 170
CC1(C)SC2CC(=O)N2C1C#N (centres undefined)	73 to 75
COc1ccc(N(C(C)=O)S(=O)(=O)c2ccc(C)cc2)c([N+](=O)[O-])c1	172 to 174
CCOc1cc(-c2cc(C(F)(F)F)n3cnc(-c4ccncc4)c3n2)ccc1C(F)(F)F	212
CC(=O)C(C)(C)Cc1cc(C(C)(C)C)c(O)c(C(C)(C)C)c1	75
CCN(c1ccc(Cl)cc1C(O)c1ccccc1Cl)S(=O)(=O)c1ccc(OC)c(OC)c1 (centres undefined)	154

Compound	melting point [°C]
CC(=O)O[C@@H]1OCC[C@@H]1NC(=O)[C@H](CC(C)C)NC(=O)[C@H](CC(C)C)NC(=O)OCc1ccccc1	175 to 176
CCCCOC(=O)c1ccc(N2CCN(c3ccc(CC(C)O)cc3)CC2)cc1 (centres undefined)	85 to 86
CCCCN(CCCC)c1ccc(C=Cc2ccc(C(C#N)=c3ccc(=C(C#N)C#N)cc3)s2)c(OC)c1	211 to 214
Cc1cc(-c2ncc(OC3SCC(O)C(O)C3O)cc2F)ccn1 (centres undefined)	143
C=CCOc1ccc(C)c2c1C(=O)C1CCCCC21 (centres undefined)	106 to 107
Cc1nc(C)c(C(C)(O)c2ccoc2)s1 (centres undefined)	104 to 105
N#Cc1cccc2c1C(=O)OC2O (centres undefined)	138 to 140
CCn1nc2c(N)nc3ccccc3c2c1CC1(F)CCN(C(=O)NC(C)C)CC1	205 to 207
COc1cccc(CNc2nc(NC[C@@H](C)O)nc3c2ncn3C(C)C)c1O	100 to 103
COc1cc(NC(=O)OC(C)(C)C)c(NC(=O)CC(=O)c2cccc(C#N)c2)cc1C#Cc1ccccc1	169
CC1CCN(c2nccc(Oc3ccc(NC(=O)c4cc(F)cc(N5CCCCC5)c4)c4ccccc34)n2)CC1	145 to 146
O=c1cc(C(F)(F)F)nc(ON=C2CCCC2)n1-c1cc(Oc2ccccc2[N+](=O)[O-])c(Cl)cc1F	76 to 78
COCc1c(C(=O)OC(C)C)ncc2c1c1c(OCc3ccccc3)cccc1n2CC(=O)N(C)CCc1ccccc1	146 to 147
Nc1nc2c(N)cc(OC(F)(F)F)cc2s1	206
CC(C)Oc1cc(CCCO)n(Cc2ccc(Cl)cc2Cl)n1	51 to 52
CC(=O)N[C@@H](CSC(=O)C(C)(C)C)C(=O)NCCSC(=O)C(C)(C)C	109 to 111
COc1cc(CCl)c(CCNC(=O)C(F)(F)F)cc1OC	140
C=Cc1ccc2c3ccc(C=C)cc3n(CC(CC)CCCC)c2c1 (centres undefined)	59 to 60
COc1cccc(Cc2cc(OC)ccc2O)c1	116 to 118
O=C(Nc1ccc(-n2nc(C(F)(F)F)cc2C(F)(F)F)nc1)c1cc(F)c(F)cc1Cl	113 to 116
